The experiment concerns the target human GALK (Homo sapiens, UniProt P51570). The experiment is described as follows: GALK inhibition in vitro. It is filed as biochemical. The following applies: unpublished data.

Here are results for three compounds from publication PMC3253915 (Molecular Genetics and Metabolism, 2011).

Molecules are shown by their SMILES.

human GALK, sequence (P51570 whole entry): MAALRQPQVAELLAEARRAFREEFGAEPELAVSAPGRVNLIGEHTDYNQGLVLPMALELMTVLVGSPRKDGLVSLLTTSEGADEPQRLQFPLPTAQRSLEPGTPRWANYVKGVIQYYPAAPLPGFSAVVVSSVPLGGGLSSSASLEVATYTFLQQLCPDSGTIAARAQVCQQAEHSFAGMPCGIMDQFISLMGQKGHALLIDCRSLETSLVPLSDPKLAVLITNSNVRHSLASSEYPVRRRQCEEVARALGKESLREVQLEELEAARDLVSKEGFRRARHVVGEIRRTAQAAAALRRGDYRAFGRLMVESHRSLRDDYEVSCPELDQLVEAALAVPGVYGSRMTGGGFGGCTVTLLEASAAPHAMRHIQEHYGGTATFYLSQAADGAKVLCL

Take `OC[C@H]1OC(O)[C@H](O)[C@@H](O)[C@@H]1O` (stereo partly drawn) [glucose]: the GALK inhibition result (at low millimolar (mM) range) is on record as “no inhibition”.

For the compound `O=C(CO)[C@@H](O)[C@H](O)[C@H](O)CO` [fructose], the GALK inhibition entry (at low millimolar (mM) range) was “no inhibition”.

Take `O=CC[C@@H](O)[C@@H](O)[C@H](O)CO` [2-deoxygalactose]: for the setting “galactose derivative”, the GALK inhibition result is “did not result in GALK inhibition”.
